Patent US20240246946A1, “MODULATORS OF TREX1” (Constellation Pharmaceuticals, Inc., priority 2021, published 2024)
Read-outs that look alike come from different tables or passages of the source.

What was measured:
[1] = target: T1, full length human TREX1 (Homo sapiens, UniProt Q9NSU2); assay: hTREX1 Biochemical Assay (fluorescence, dsDNA substrate degradation)
T1 construct: N-terminally His-Tev tagged full length human TREX1; made in house; host or cells: E. coli
T1 sequence (Q9NSU2 1-314): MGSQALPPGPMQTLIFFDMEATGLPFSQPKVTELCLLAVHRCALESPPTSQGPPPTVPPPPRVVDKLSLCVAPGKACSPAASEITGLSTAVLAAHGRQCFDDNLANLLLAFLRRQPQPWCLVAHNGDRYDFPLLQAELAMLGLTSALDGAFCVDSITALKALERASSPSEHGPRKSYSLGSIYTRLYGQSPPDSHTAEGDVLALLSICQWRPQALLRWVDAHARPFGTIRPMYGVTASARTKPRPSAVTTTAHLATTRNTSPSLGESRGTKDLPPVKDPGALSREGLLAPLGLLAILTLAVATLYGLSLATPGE
Method in brief: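 Cleavage of 60 nM TEX615/quencher-labelled dsDNA in pH 7.4 Tris buffer with 5 mM MgCl2, 1.0% DMSO, run 18 hours at 25° C, EDTA-quenched; fluorescence read-out.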

[2] = target: T2, full length mouse TREX1 (Mus musculus, UniProt Q91XB0); assay: mTREX1 Biochemical Assay (fluorescence, dsDNA substrate degradation)
T2 construct: N-terminally His-Tev tagged full length mouse TREX1; made in house; host or cells: E. coli
T2 sequence (Q91XB0 1-314): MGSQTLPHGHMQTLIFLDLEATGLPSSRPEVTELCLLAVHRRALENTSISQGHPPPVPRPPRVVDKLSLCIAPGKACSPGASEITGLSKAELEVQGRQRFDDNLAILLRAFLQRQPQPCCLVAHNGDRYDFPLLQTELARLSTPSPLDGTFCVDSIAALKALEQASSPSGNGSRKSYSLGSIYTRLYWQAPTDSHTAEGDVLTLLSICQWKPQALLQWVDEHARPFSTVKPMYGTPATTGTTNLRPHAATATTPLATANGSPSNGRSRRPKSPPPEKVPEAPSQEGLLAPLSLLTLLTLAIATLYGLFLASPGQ
Method in brief: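 Reaction run 18 h at 25° C. with 60 nM TEX615/quencher-labelled dsDNA and 6 pM mouse TREX1 in Tris buffer (pH 7.4, 5 mM MgCl2, 1.0% DMSO), enzyme having sat 4 h with compound across 10 concentrations. EDTA quench; substrate degradation measured as fluorescence increase.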

[3] = target: T3, human TREX2 (residues M44-A279) (Homo sapiens, UniProt Q9BQ50); assay: hTREX2 Biochemical Assay (fluorescence, dsDNA substrate degradation); details: biochemical selectivity for hTREX1 vs hTREX2
T3 construct: human TREX2 (residues M44-A279, expressed in E. coli); made in house; host or cells: E. coli
T3 sequence (Q9BQ50 44-279 isoform Q9BQ50-1): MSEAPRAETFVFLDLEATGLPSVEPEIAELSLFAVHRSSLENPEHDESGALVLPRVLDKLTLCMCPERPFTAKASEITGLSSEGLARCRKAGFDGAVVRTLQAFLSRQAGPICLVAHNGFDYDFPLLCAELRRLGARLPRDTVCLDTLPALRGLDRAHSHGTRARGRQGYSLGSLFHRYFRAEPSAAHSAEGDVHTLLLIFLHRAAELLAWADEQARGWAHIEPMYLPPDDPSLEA
Experimental: Degradation of the dsDNA liberates free fluorophore to produce a fluorescent signal. Specifically, 7.5 μL of N-terminally His-Tev tagged human TREX2 (residues M44-A279, expressed in E. coli and purified in house) in reaction buffer (50 mM Tris, 150 mM NaCl, 2 mM DTT, 0.1 mg/mL BSA, 0.01% (w/v) Tween-20, 5 mM MgCl2, pH 7.4) was added to a 384-well Black ProxiPlate Plus (PerkinElmer) which already contained compound (150 nL) at varying concentrations as a 10 point dose-response in DMSO. The plate was incubated at 25° C. for 4 hours. Reactions were initiated by adding 7.5 μL of dsDNA substrate (Strand A: 5′ TEX615/GCT AGG CAG 3′; Strand B: 5′ CTG CCT AGC/IAbRQSp (IDT)) in reaction buffer. Final concentrations were 50 pM TREX2, 60 nM dsDNA substrate in reaction buffer with 1.0% DMSO (v/v). After 18 hours at 25° C., reactions were quenched by the addition of 2 μL of 500 mM EDTA. Final concentrations in the quenched reaction mixture were 44 pM TREX2, 53 nM DNA and 59 mM EDTA in a volume of 17 μL. After a 5-minute incubation at room temperature, plates were read in an EnVision plate reader (PerkinElmer) measuring fluorescence at 615 nm following excitation w/570 nm light.

[4] = biochemical, read-out: hTREX1 IC50
[5] = biochemical, read-out: mTREX1 IC50

Row | IC50 [1, 4] [nM] | IC50 [2, 5] [nM] | SMILES | hTREX1 vs hTREX2 selectivity [3] | IC50 ([1]; hTREX1 IC50, biochemical) [nM] | IC50 ([2]; mTREX1 IC50, biochemical) [nM]
1 | > 10 | > 10 | CCn1cc(C(c2cc(F)ccc2C#N)C(C)c2nc(C(=O)Nc3cnoc3)c(O)c(=O)n2C)cn1 (single isomer, unassigned) [Example 17 D2E1] | B (B = 25 to 50-fold selective for hTREX1) |  | 
2 | > 10 | > 10 | CC(c1nc(C(=O)Nc2cnoc2)c(O)c(=O)n1C)C(c1cnc(C(F)(F)F)cn1)c1ccccc1C#N (single isomer, unassigned) [Example 118 D2E2] | A (A = <25 fold selective for hTREX1) |  | 
3 | > 10 | > 10 | COCCn1ncc(C(c2cc(F)ccc2C#N)C(C)c2nc(C(=O)Nc3cnoc3)c(O)c(=O)n2C)c1C (single isomer, unassigned) [Example 104 D1E2] | A (A = <25 fold selective for hTREX1) |  | 
4 | > 10 | > 10 | Cc1ncc(C(c2ccccc2C#N)C(C)c2nc(C(=O)Nc3cnoc3)c(O)c(=O)n2C)nc1C (single isomer, unassigned) [Example 81 D2E2] | B (B = 25 to 50-fold selective for hTREX1) |  | 
5 |  |  | Cc1ccnn1C(c1ccccc1Cl)C(C)c1nc(C(=O)Nc2cnoc2)c(O)c(=O)n1C (single isomer, unassigned) [Example 54 D1E1] |  | 1 to 10 | 1 to 10
6 | > 10 | > 10 | CCn1cc(C(c2cc(F)ccc2C#N)C(C)c2nc(C(=O)Nc3cnoc3)c(O)c(=O)n2C)cn1 (single isomer, unassigned) [Example 17 D1E1] |  |  | 
7 | > 10 | > 10 | CC(c1nc(C(=O)Nc2cnoc2)c(O)c(=O)n1C)C(c1cnn(C)c1)c1ccncc1C#N (single isomer, unassigned) [Example 8 D1E1] |  |  | 
8 | > 10 | > 10 | CC(c1nc(C(=O)Nc2cnoc2)c(O)c(=O)n1C)C(c1cnn(CCCN(C)C)c1)c1ccccc1C#N (single isomer, unassigned) [Example 34 D2E2] |  |  | 
9 | 1 to 10 | > 10 | CC(c1nc(C(=O)Nc2cnoc2)c(O)c(=O)n1C)C(c1cnccn1)c1ccccc1C#N (single isomer, unassigned) [Example 66 D1E2] |  |  | 
10 | > 10 | > 10 | CC(c1nc(C(=O)Nc2cnoc2)c(O)c(=O)n1C)C(c1cnn(C(F)(F)F)c1)c1ccccc1C#N (single isomer, unassigned) [Example 151 D2E2] |  |  | 
11 | > 10 | > 10 | CCn1cc(C(c2cc(F)ccc2C#N)C(C)c2nc(C(=O)Nc3cnoc3)c(O)c(=O)n2C)cn1 (single isomer, unassigned) [Example 17 D2E2] |  |  | 
12 | < 1 | 1 to 10 | CCn1cc(C(c2cc(F)c(F)cc2Cl)C(C)c2nc(C(=O)Nc3cnoc3)c(O)c(=O)n2C)cn1 (single isomer, unassigned) [Example 72 D1E1] |  |  | 
13 | > 10 | > 10 | CCn1cc(C(c2cc(F)c(F)cc2Cl)C(C)c2nc(C(=O)Nc3cnoc3)c(O)c(=O)n2C)cn1 (single isomer, unassigned) [Example 72 D1E2] |  |  | 
14 | > 10 | > 10 | Cc1nn(C)cc1C(c1cc(F)ccc1Cl)C(C)c1nc(C(=O)Nc2cnoc2)c(O)c(=O)n1C (single isomer, unassigned) [Example 62 D1E2] |  |  | 
15 | > 10 | > 10 | Cc1cc(C(c2cc(F)ccc2C#N)C(C)c2nc(C(=O)Nc3cnoc3)c(O)c(=O)n2C)n(C)n1 (single isomer, unassigned) [Example 111 D1E1] |  |  | 
16 | > 10 | > 10 | Cn1cc(C(c2ccccc2C#N)C(c2nc(C(=O)Nc3cnoc3)c(O)c(=O)n2C)C(F)(F)F)cn1 (single isomer, unassigned) [Example 40 D2E1] |  |  | 

Row | IC50 [1, 4] [nM] | IC50 [2, 5] [nM] | SMILES | hTREX1 vs hTREX2 selectivity [3] | IC50 ([1]; hTREX1 IC50, biochemical) [nM] | IC50 ([2]; mTREX1 IC50, biochemical) [nM]
17 | > 10 | > 10 | CC(c1nc(C(=O)Nc2cnoc2)c(O)c(=O)n1C)C(c1cnn(C)c1)c1ccc(Cl)cc1C#N (single isomer, unassigned) [Example 27 D2E2] |  |  | 
18 | > 10 | > 10 | CC(c1nc(C(=O)Nc2cnoc2)c(O)c(=O)n1C)C(c1cnn(CCN2CCN(C(=O)OC(C)(C)C)CC2)c1)c1ccccc1C#N (single isomer, unassigned) [Example 21 D2E2] |  |  | 
19 | > 10 | > 10 | CC(c1nc(C(=O)Nc2cnoc2)c(O)c(=O)n1C)C(c1cnn(CCN2CCNCC2)c1)c1ccccc1C#N (single isomer, unassigned) [Example 31 D2E1] |  |  | 
20 | > 10 | > 10 | CC(c1nc(C(=O)Nc2cnoc2)c(O)c(=O)n1C)C(c1ncn(C)n1)c1ccccc1C#N (single isomer, unassigned) [Example 51 D2E2] |  |  | 
21 | > 10 | > 10 | COCCCn1cc(C(c2ccccc2C#N)C(C)c2nc(C(=O)Nc3cnoc3)c(O)c(=O)n2C)cn1 (single isomer, unassigned) [Example 24 D1E2] |  |  | 
22 | > 10 | > 10 | CC(c1nc(C(=O)Nc2cnoc2)c(O)c(=O)n1C)C(c1cnn(C)c1)c1cc(C(F)(F)F)ccc1C#N (single isomer, unassigned) [Example 29 D2E2] |  |  | 
23 | > 10 | > 10 | COCCn1ncc(C(c2ccccc2C#N)C(C)c2nc(C(=O)Nc3cnoc3)c(O)c(=O)n2C)c1C (single isomer, unassigned) [Example 69 D1E2] |  |  | 
24 | > 10 | > 10 | CCn1cc(C(c2cc(F)c(F)cc2Cl)C(C)c2nc(C(=O)Nc3cnoc3)c(O)c(=O)n2C)cn1 (single isomer, unassigned) [Example 72 D2E1] |  |  | 
25 | > 10 | > 10 | Cc1cnn(C)c1C(c1ccccc1C#N)C(C)c1nc(C(=O)Nc2cnoc2)c(O)c(=O)n1C (single isomer, unassigned) [Example 84 D1E2] |  |  | 
26 | > 10 | > 10 | CC(c1nc(C(=O)Nc2cnoc2)c(O)c(=O)n1C)C(c1cnn(C)c1)c1ccc(O)cc1C#N (single isomer, unassigned) [Example 80 D2E1] |  |  | 
27 | > 10 | > 10 | Cc1nn(C)cc1C(c1cc(F)ccc1C#N)C(c1nc(C(=O)Nc2cnoc2)c(O)c(=O)n1C)C(F)(F)F (single isomer, unassigned) [Example 42 D2E2] |  |  | 
28 | > 10 | > 10 | Cn1cc(C(c2ccccc2C#N)C(c2nc(C(=O)Nc3cnoc3)c(O)c(=O)n2C)C(F)(F)F)cn1 (single isomer, unassigned) [Example 40 D1E1] |  |  | 
29 | > 10 | > 10 | CC(c1nc(C(=O)Nc2cnoc2)c(O)c(=O)n1C)C(c1cnn(CCN2CCNCC2)c1)c1ccccc1C#N (single isomer, unassigned) [Example 31 D1E2] |  |  | 
30 | > 10 | > 10 | CC(c1nc(C(=O)Nc2cnoc2)c(O)c(=O)n1C)C(c1cnn(CCO)c1)c1ccccc1C#N (single isomer, unassigned) [Example 35 D2E2] |  |  | 
31 | > 10 | > 10 | Cc1cn(C)nc1C(c1ccccc1C#N)C(C)c1nc(C(=O)Nc2cnoc2)c(O)c(=O)n1C (single isomer, unassigned) [Example 64 D1E2] |  |  | 
